Assay results taken from patent US10221197B2, “Phosphatidylinositol 3-kinase inhibitors” (Gilead Sciences, Inc., priority 2014, dated 2019).
Like-named read-outs stand apart in the source and are kept apart here.

How the values were obtained:
Assay type in all cases: biochemical
PI3Kβ = PI3Kβ (Homo sapiens (Human), UniProt P42338); assay: TR-FRET enzymatic assay of PI3K isoforms (PI3Kβ); details: for IC50: TR-FRET, 2×Km ATP, 2 μM PIP2, incubated for 30 minutes at 25° C., read-out: β IC50; for PI3Kγ/PI3Kβ ratio: ratio of IC50 values, selectivity for PI3Kβ over PI3Kγ
Sequence of PI3Kβ (P42338 whole entry, canonical isoform): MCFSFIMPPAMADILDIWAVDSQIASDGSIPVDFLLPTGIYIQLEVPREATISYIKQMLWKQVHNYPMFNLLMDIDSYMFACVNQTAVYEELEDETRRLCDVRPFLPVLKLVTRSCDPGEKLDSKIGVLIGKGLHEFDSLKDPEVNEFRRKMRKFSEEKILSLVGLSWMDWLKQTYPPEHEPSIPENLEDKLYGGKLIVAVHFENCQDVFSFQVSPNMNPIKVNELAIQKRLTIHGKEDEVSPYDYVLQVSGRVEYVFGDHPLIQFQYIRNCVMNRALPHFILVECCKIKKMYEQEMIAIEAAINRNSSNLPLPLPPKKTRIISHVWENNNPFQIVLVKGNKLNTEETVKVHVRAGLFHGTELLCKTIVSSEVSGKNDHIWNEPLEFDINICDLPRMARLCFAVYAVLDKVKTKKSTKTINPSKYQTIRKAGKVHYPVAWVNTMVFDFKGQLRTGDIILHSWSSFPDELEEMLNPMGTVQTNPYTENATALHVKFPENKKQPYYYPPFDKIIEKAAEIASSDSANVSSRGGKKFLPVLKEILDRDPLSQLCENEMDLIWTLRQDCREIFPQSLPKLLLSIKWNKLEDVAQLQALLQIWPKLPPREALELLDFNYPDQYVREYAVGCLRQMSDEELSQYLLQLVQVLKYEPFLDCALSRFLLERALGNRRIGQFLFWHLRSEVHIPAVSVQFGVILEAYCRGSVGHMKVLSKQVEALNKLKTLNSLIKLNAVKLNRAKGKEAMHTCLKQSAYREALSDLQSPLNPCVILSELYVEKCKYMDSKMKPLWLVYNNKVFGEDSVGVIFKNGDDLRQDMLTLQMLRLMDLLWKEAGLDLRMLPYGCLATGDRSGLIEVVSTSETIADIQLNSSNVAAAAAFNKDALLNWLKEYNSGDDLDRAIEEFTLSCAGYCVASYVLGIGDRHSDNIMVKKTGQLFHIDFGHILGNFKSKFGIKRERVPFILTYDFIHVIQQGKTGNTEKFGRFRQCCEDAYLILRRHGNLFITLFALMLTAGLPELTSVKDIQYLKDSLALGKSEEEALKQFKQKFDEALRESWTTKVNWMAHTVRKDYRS
Sequence of PI3Kβ (P27986 whole entry partner, canonical isoform): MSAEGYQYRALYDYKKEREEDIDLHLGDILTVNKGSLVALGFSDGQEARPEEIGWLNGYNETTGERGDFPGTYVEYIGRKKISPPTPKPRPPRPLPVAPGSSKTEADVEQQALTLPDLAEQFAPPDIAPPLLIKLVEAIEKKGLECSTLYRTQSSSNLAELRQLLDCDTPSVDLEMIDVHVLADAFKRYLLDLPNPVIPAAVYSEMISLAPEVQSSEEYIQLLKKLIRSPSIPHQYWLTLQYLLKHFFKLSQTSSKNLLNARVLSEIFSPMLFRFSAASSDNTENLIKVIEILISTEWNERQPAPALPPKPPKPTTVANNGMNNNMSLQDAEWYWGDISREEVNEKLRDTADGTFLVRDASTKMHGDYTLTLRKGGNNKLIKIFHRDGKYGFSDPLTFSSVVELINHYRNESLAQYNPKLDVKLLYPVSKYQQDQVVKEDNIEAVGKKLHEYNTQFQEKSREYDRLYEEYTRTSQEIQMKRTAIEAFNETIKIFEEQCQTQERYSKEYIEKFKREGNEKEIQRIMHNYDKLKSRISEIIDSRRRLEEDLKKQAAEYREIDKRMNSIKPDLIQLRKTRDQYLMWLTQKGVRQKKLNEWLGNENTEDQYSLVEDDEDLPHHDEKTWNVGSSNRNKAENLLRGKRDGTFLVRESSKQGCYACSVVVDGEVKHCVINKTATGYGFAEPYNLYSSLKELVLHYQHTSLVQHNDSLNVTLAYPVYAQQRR
Experimental: (§1) The compounds of formula (I) were characterized for their enzymatic activity against the PI3K isoforms. Certain compounds of the present application, including certain compounds of formula (II) and (III) were also characterized for their enzymatic activity against PI3K isoforms. The activities were measured using a time-resolved fluorescence resonance energy transfer (TR-FRET) assay.

PI3Kδ = PI3Kδ (Homo sapiens (Human), UniProt O00329); assay: TR-FRET enzymatic assay of PI3K isoforms (PI3Kδ); details: 2×Km ATP, 2 μM PIP2, incubated for 30 minutes at 25° C., read-out: δ IC50
Sequence of PI3Kδ (O00329 whole entry, canonical isoform): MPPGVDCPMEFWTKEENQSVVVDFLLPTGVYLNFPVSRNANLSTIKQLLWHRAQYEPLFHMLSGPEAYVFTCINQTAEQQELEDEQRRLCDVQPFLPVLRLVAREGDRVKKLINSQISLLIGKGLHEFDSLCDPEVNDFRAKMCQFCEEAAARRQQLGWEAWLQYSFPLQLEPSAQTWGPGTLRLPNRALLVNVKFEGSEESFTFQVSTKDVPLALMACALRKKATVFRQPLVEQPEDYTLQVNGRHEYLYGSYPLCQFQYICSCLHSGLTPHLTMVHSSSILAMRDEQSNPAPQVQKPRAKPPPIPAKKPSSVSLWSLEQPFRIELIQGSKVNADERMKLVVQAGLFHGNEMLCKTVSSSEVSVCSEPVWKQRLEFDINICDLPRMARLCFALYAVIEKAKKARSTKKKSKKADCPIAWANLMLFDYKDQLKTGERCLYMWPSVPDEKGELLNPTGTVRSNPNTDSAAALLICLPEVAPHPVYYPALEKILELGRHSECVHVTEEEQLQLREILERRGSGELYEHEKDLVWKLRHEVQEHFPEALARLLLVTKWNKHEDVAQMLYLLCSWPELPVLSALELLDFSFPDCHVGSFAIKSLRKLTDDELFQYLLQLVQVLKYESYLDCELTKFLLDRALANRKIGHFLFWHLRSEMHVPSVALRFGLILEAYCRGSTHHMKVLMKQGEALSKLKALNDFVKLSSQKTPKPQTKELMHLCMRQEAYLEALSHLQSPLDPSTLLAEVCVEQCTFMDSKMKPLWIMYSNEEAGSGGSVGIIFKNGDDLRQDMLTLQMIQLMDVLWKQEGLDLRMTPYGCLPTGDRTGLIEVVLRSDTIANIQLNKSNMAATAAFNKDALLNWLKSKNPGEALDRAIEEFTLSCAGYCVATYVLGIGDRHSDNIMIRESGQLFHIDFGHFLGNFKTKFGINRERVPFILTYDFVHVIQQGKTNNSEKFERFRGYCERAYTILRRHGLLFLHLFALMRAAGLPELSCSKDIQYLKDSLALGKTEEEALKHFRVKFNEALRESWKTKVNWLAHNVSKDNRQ
Sequence of PI3Kδ (P27986 whole entry partner, canonical isoform): as the sequence (P27986 whole entry partner, canonical isoform) above
Experimental: as §1

PI3Kγ = PI3Kγ (Homo sapiens (Human), UniProt P48736); assay: TR-FRET enzymatic assay of PI3K isoforms (PI3Kγ); details: read-out: γ IC50
Sequence of PI3Kγ (P48736 whole entry, canonical isoform): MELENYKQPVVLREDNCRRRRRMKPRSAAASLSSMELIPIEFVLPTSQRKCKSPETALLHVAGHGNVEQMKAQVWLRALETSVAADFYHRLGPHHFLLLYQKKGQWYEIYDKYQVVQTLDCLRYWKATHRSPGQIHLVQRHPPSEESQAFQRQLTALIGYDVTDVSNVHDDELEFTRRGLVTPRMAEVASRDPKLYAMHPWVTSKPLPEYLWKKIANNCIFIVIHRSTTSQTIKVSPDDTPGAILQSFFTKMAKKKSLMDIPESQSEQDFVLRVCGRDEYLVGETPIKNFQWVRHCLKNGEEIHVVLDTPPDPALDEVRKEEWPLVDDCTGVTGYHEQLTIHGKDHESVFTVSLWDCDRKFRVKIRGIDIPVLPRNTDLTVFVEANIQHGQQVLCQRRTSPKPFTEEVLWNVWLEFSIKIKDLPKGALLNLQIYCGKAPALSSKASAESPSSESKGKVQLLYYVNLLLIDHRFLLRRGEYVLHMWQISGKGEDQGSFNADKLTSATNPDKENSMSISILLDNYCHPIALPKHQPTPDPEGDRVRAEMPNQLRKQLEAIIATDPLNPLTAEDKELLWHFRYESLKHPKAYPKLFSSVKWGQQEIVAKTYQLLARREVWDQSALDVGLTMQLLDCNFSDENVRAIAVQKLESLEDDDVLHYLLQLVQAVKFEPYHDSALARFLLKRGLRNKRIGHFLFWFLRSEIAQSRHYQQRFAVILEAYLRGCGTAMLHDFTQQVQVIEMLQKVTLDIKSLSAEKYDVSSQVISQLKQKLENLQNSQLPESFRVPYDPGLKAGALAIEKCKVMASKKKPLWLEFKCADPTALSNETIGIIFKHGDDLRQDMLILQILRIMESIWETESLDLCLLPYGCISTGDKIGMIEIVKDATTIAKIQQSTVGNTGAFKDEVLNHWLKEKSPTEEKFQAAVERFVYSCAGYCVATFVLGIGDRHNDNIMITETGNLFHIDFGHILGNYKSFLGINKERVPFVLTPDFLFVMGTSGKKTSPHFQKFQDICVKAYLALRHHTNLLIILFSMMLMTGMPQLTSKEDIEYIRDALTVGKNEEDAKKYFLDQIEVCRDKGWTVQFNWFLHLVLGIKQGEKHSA
Sequence of PI3Kγ (Q8WYR1 whole entry partner, canonical isoform): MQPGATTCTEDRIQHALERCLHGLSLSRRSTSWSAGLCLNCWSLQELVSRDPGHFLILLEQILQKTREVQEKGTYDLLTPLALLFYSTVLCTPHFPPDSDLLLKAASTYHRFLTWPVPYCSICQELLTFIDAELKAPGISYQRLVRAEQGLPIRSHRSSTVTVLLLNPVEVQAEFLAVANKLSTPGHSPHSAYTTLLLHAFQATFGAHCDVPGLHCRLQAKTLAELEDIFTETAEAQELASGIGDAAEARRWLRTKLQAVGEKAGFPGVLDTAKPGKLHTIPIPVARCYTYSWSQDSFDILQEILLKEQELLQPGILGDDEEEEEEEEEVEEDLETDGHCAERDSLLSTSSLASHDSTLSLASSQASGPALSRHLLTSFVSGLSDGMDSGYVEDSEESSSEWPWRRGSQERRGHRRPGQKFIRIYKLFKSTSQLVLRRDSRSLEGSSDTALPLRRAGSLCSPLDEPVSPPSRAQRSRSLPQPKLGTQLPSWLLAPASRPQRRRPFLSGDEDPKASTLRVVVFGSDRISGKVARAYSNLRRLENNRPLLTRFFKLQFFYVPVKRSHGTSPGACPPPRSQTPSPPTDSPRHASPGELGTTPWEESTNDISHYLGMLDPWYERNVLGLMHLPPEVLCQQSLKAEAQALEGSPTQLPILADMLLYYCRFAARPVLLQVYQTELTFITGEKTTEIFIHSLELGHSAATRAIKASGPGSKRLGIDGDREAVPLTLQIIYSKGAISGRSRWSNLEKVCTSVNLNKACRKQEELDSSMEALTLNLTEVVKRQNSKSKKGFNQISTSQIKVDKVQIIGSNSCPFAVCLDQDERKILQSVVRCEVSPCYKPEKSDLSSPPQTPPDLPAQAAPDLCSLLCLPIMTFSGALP
Experimental: as §1

[1] = TR-FRET, 2×Km ATP, 2 μM PIP2, PI3Kγ at 2 nM, incubated for 30 minutes at 25° C.

| SMILES | IC50 (PI3Kβ) [µM] | IC50 (PI3Kδ) [µM] | IC50 (PI3Kγ; [1]) [µM] | IC50 (PI3Kγ) [µM] | PI3Kγ/PI3Kβ ratio (PI3Kβ) | PI3Kγ/PI3Kβ ratio (PI3Kβ; listed as (S)-2,4-diamino-6-(1-(5-chloro-4-oxo-3-phenyl-3,4-dihydroquinazolin-2-yl)ethyl)) |
| --- | --- | --- | --- | --- | --- | --- |
| CCNC(=O)Nc1ccc(Cl)c(-n2c([C@H](C)Nc3ncnc(N)c3C#N)nc3cccc(Cl)c3c2=O)c1 (atropisomer, axis not shown) [Compound 58, (S)-1-(3-(2-(1-((6-amino-5-cyanopyrimidin-4-yl)amino)ethyl)-5-chloro-4-oxoquinazolin-3(4H)-yl)-4-chlorophenyl)-3-ethylurea] | 1.3 | 0.024 |  |  |  |  |
| CCNC(=O)Nc1ccc(Cl)c(-n2c([C@H](C)Nc3ncnc(N)c3C#N)nc3cccc(Cl)c3c2=O)c1 (atropisomer, axis not shown) [Compound 59, (S)-1-(3-(2-(1-((6-amino-5-cyanopyrimidin-4-yl)amino)ethyl)-5-chloro-4-oxoquinazolin-3(4H)-yl)-4-chlorophenyl)-3-ethylurea] | 0.61 | 0.056 | 2.3 |  |  |  |
| CCNC(=O)Nc1ccc(C)c(-n2c([C@H](C)Nc3ncnc(N)c3C#N)nc3cccc(Cl)c3c2=O)c1 (atropisomer, axis not shown) [Compound 60, (S)-1-(3-(2-(1-((6-amino-5-cyanopyrimidin-4-yl)amino)ethyl)-5-chloro-4-oxoquinazolin-3(4H)-yl)-4-methylphenyl)-3-ethylurea] | 0.21 | 0.004 | 0.21 |  |  |  |
| CCNC(=O)Nc1ccc(C)c(-n2c([C@H](C)Nc3ncnc(N)c3C#N)nc3cccc(Cl)c3c2=O)c1 (atropisomer, axis not shown) [Compound 61, (S)-1-(3-(2-(1-((6-amino-5-cyanopyrimidin-4-yl)amino)ethyl)-5-chloro-4-oxoquinazolin-3(4H)-yl)-4-methylphenyl)-3-ethylurea] | 1.13 | 0.008 | 2.5 |  |  |  |
| Cc1c(C(N)=O)cccc1-n1c([C@H](C)Nc2nc(N)nc(N)c2C#N)nc2cccc(Cl)c2c1=O (single isomer, unassigned) [Compound 5] | 0.526 | 0.002 | 0.081 |  |  |  |
| Cc1c(C(N)=O)cccc1-n1c([C@H](C)Nc2nc(N)nc(N)c2C#N)nc2cccc(Cl)c2c1=O (single isomer, unassigned) [Compound 6] | 0.032 | 0.004 | 0.62 |  |  |  |
| CCNC(=O)Nc1cccc(-n2c([C@H](C)Nc3ncnc(N)c3C#N)nc3cccc(Cl)c3c2=O)c1Cl (single isomer, unassigned) [Compound 94] | 5.5 | 0.078 | > 10 |  |  |  |
| CCNC(=O)Nc1cccc(-n2c([C@H](C)Nc3ncnc(N)c3C#N)nc3cccc(Cl)c3c2=O)c1Cl (single isomer, unassigned) [Compound 95] | 0.059 | 0.005 | 1 |  |  |  |
| C[C@H](Nc1nc(N)nc(N)c1Cl)c1nc2cccc(Cl)c2c(=O)n1-c1cccc(C(N)=O)c1 [Compound 1, (S)-3-(5-chloro-2-(1-((2,6-diamino-5-chloropyrimidin-4-yl)amino)ethyl)-4-oxoquinazolin-3(4H)-yl)benzamide] | 0.014 | 0.0007 | 1.3 |  |  |  |
| Cc1nc(N)nc(N[C@H](c2nc3c(Cl)ccc(Cl)c3c(=O)n2-c2cccc(C(N)=O)c2)C2CC2)c1C#N [Compound 13, (S)-3-(2-(((2-amino-5-cyano-6-methylpyrimidin-4-yl)amino)(cyclopropyl)methyl)-5,8-dichloro-4-oxoquinazolin-3(4H)-yl)benzamide] | 0.007 |  | 0.51 |  |  |  |
| CCC[C@H](Nc1nc(N)nc(N)c1C#N)c1nc2c(Cl)ccc(Cl)c2c(=O)n1-c1cccc(C(N)=O)c1 [Compound 20, (S)-3-(5,8-dichloro-2-(1-((2,6-diamino-5-cyanopyrimidin-4-yl)amino)butyl)-4-oxoquinazolin-3(4H)-yl)benzamide] | 0.011 |  | 1.4 |  |  |  |
| N#Cc1c(N)nc(N)nc1N[C@H](c1nc2c(Cl)cc(F)cc2c(=O)n1-c1cccc(C(N)=O)c1)C1CC1 [Compound 27, (S)-3-(8-chloro-2-(cyclopropyl((2,6-diamino-5-cyanopyrimidin-4-yl)amino)methyl)-6-fluoro-4-oxoquinazolin-3(4H)-yl)benzamide] | 0.005 | 0.002 |  |  |  |  |
| C[C@H](Nc1nc(N)nc(N)c1C#N)c1nc2c(Cl)cc(F)cc2c(=O)n1-c1cccc(C(N)=O)c1 [Compound 29] | 0.008 |  | 0.44 |  |  |  |
| CCNC(=O)Nc1cccc(-n2c([C@@H](Nc3ncnc(N)c3C#N)[C@@H](C)CC)nc3cccc(Cl)c3c2=O)c1 [Compound 42, 1-(3-(2-((1S,2S)-1-((6-amino-5-cyanopyrimidin-4-yl)amino)-2-methylbutyl)-5-chloro-4-oxoquinazolin-3(4H)-yl)phenyl)-3-ethylurea] | 0.17 |  | > 10 |  |  |  |
| CCNC(=O)Nc1cccc(-n2c([C@@H](C)Nc3ncnc(N)c3C#N)nc3cccc(Cl)c3c2=O)c1 [Compound 44, (R)-1-(3-(2-(1-((6-amino-5-cyanopyrimidin-4-yl)amino)ethyl)-5-chloro-4-oxoquinazolin-3(4H)-yl)phenyl)-3-ethylurea] | 0.32 |  | > 10 |  |  |  |
| CCNC(=O)Nc1cccc(-n2c([C@H](C)Nc3ncnc(N)c3C#N)nc3cccc(C(F)(F)F)c3c2=O)c1 [Compound 51, (S)-1-(3-(2-(1-((6-amino-5-cyanopyrimidin-4-yl)amino)ethyl)-4-oxo-5-(trifluoromethyl)quinazolin-3(4H)-yl)phenyl)-3-ethylurea] | 0.067 |  |  |  |  |  |
| CCNC(=O)Nc1cccc(-n2c([C@H](C)Nc3ncnc4[nH]cnc34)nc3c(F)ccc(Cl)c3c2=O)c1 [Compound 63, (S)-1-(3-(2-(1-((9H-purin-6-yl)amino)ethyl)-5-chloro-8-fluoro-4-oxoquinazolin-3(4H)-yl)phenyl)-3-ethylurea] | 0.029 | 0.029 |  |  |  |  |
| CCNC(=O)Nc1cccc(-n2c([C@H](C)Nc3ncnn4ccnc34)nc3cccc(Cl)c3c2=O)c1 [Compound 71, (S)-1-(3-(5-chloro-2-(1-(imidazo[2,1-f][1,2,4]triazin-4-ylamino)ethyl)-4-oxoquinazolin-3(4H)-yl)phenyl)-3-ethylurea] | 0.029 |  | 2 |  |  |  |
| C[C@H](Nc1ncnc(N)c1C#N)c1nc2cccc(Cl)c2c(=O)n1-c1cccc(NC(=O)Nc2cc(C(C)(C)C)on2)c1 [Compound 74, (S)-1-(3-(2-(1-((6-amino-5-cyanopyrimidin-4-yl)amino)ethyl)-5 chloro-4-oxoquinazolin-3(4H)-yl)phenyl)-3-(5-(tert-butyl)isoxazol-3-yl)urea] | 0.011 | 0.003 |  |  |  |  |
| CCNC(=O)Nc1cccc(-n2c([C@H](C)Nc3ncnc(N)c3C#N)nc3cccc(Cl)c3c2=O)c1 [Compound 90, (S)-1-(3-(2-(1-((6-amino-5-cyanopyrimidin-4-yl)amino)ethyl)-5-chloro-4-oxoquinazolin-3(4H)-yl)phenyl)-3-ethylurea] | 0.005 |  | 3.4 |  |  |  |
| C[C@H](Nc1ncnc(N)c1C#N)c1nc2cccc(Cl)c2c(=O)n1-c1cccc(NC(=O)Nc2c(Cl)cccc2Cl)c1 [Compound 103, (S)-1-(3-(2-(1-((6-amino-5-cyanopyrimidin-4-yl)amino)ethyl)-5-chloro-4-oxoquinazolin-3(4H)-yl)phenyl)-3-(2,6-dichlorophenyl)urea] | 0.002 | 0.007 |  |  |  |  |
| C[C@H](Nc1ncnc(N)c1C#N)c1nc2cccc(Cl)c2c(=O)n1-c1cccc(NC(=O)Nc2ccc(F)cc2F)c1 [Compound 105, (S)-1-(3-(2-(1-((6-amino-5-cyanopyrimidin-4-yl)amino)ethyl)-5-chloro-4-oxoquinazolin-3(4H)-yl)phenyl)-3-(2,4-difluorophenyl)urea] | 0.003 |  | 0.8 |  |  |  |
| N#Cc1c(N)ncnc1N[C@@H](COCc1ccccc1)c1nc2cccc(Cl)c2c(=O)n1-c1cccc(NC(=O)NCCCO)c1 [Compound 130, (R)-1-(3-(2-(1-((6-amino-5-cyanopyrimidin-4-yl)amino)-2-(benzyloxy)ethyl)-5-chloro-4-oxoquinazolin-3(4H)-yl)phenyl)-3-(3-hydroxypropyl)urea] | 0.024 |  |  | > 10 |  |  |
| CCNC(=O)Nc1cccc(-n2c([C@H](COCc3ccccc3)Nc3ncnc4[nH]cnc34)nc3cccc(Cl)c3c2=O)c1 [Compound 133, (R)-1-(3-(2-(1-((9H-purin-6-yl)amino)-2-(benzyloxy)ethyl)-5-chloro-4-oxoquinazolin-3(4H)-yl)phenyl)-3-ethylurea] | 0.05 |  | 10 |  |  |  |
| C[C@H](Nc1ncnc2[nH]cnc12)c1nc2cccc(Cl)c2c(=O)n1-c1cccc(NC(=O)Nc2ccccc2S(C)(=O)=O)c1 [Compound 145, (S)-1-(3-(2-(1-((9H-purin-6-yl)amino)ethyl)-5-chloro-4-oxoquinazolin-3(4H)-yl)phenyl)-3-(2-(methylsulfonyl)phenyl)urea] | 0.03 | 0.008 |  |  |  |  |
| COCCNC(=O)Nc1cccc(-n2c(C(C)Oc3ncnc4scnc34)nc3cccc(Cl)c3c2=O)c1 (stereo not shown) [Compound 149, 1-(3-(5-chloro-4-oxo-2-(1-(thiazolo[5,4-d]pyrimidin-7-yloxy)ethyl)quinazolin-3(4H)-yl)phenyl)-3-(2-methoxyethyl)urea] | 0.06 |  | 3.5 |  |  |  |
| C[C@H](Nc1nc(N)nc(N)c1C#N)c1nc2cccc(Cl)c2c(=O)n1-c1ccccc1 [Compound X, (S)-2,4-diamino-6-((1-(5-chloro-4-oxo-3-phenyl-3,4-dihydroquinazolin-2-yl)ethyl)amino)pyrimidine-5-carbonitrile, reference compound] |  |  |  |  | 0.6 | less than 1 |
